Experimental findings from BindingDB's records for doi:10.1021/jm5015814 (Slovak Academy of Sciences, 2015) are described below.

pIC50: −log10 of the molar value.

The test deals with Aldehyde reductase AKR1A1 (Rattus norvegicus). The test is described as follows: Inhibition of Wistar rat kidney aldehyde reductase using D-glucuronate as substrate by spectrophotometry.

One may read the pIC50 as −log10 of the IC50, conventionally taken in molar units. A high value points to a small IC50. `O=C(O)Cn1ccc2ccccc21` [CHEBI:72814] had a pIC50 of 4.10.

Consider `O=C(O)Cn1c2ccccc2c2nc3ccccc3nc21`, for which the pIC50 is 4.61.

For `CC(C)(C)C(=O)c1cn(CC(=O)O)c2ccccc12`, the pIC50 was 4.16.

`CCCNC(=O)CSc1nnc2c3cc(C)ccc3n(CC(=O)O)c2n1` gave a pIC50 of 4.71.
